According to patent US6358885B1, “Substituted phenylheterocyclic herbicides” (Mississippi State University, priority 1992, dated 2002):

Experiments:
morningglory = test: Test B preemergence/postemergence greenhouse plant response rating 0 to 10; type: in vivo, Ipomoea hederacea; settings: 0 to 10 scale
How it was run: (§1)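 Test chemicals were sprayed onto freshly planted seed and, concurrently, onto young plants between the one and four leaf stage. After a twelve- to sixteen-day greenhouse period, each species was visually compared with untreated controls.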

bedstraw = test: Test C preemergence/postemergence greenhouse plant response rating 0 to 100; type: in vivo, Galium aparine; settings: POSTEMERGENCE
How it was run: (§2)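 Compounds in non-phytotoxic solvent went onto sandy loam before emergence (seeded one day earlier) or onto plants at the one-to-four leaf stage. Duck salad was treated via flood water (~2.5 cm, maintained) over silt loam.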

crabgrass = test: as above; type: in vivo, Digitaria sanguinalis; settings: POSTEMERGENCE
How it was run: as §2

wheat [1] = test: Test B preemergence/postemergence greenhouse plant response rating 0 to 10; type: in vivo, Triticum aestivum; settings: 0 to 10 scale
How it was run: as §1

blackgrass = test: Test C preemergence/postemergence greenhouse plant response rating 0 to 100; type: in vivo, Alopecurus myosuroides; settings: POSTEMERGENCE
How it was run: as §2

barnyardgrass = test: Test B preemergence/postemergence greenhouse plant response rating 0 to 10; type: in vivo, Echinochloa crus-galli; settings: 0 to 10 scale
How it was run: as §1

wheat [2] = test: Test C preemergence/postemergence greenhouse plant response rating 0 to 100; type: in vivo, Triticum aestivum; settings: POSTEMERGENCE
How it was run: as §2

wild oat = test: as above; type: in vivo, Avena fatua; settings: POSTEMERGENCE
How it was run: as §2

cotton = test: Test B preemergence/postemergence greenhouse plant response rating 0 to 10; type: in vivo, Gossypium hirsutum; settings: 0 to 10 scale
How it was run: as §1

velvetleaf = test: as above; type: in vivo, Abutilon theophrasti; settings: 0 to 10 scale
How it was run: as §1

speedwell = test: Test C preemergence/postemergence greenhouse plant response rating 0 to 100; type: in vivo, Veronica persica; settings: POSTEMERGENCE
How it was run: as §2

giant foxtail = test: as above; type: in vivo, Setaria faberii; settings: POSTEMERGENCE
How it was run: as §2

rape = test: as above; type: in vivo, Brassica napus; settings: POSTEMERGENCE
How it was run: as §2

SMILES: COCN1C(=O)COc2cc(F)c(-c3nn4c(c3Br)CCCC4)cc21 [Compound 67]
- Plant response rating, Morningglory (morningglory; POSTEMERGENCE, Rate 10 g/ha): 10
- Plant response rating, Morningglory (morningglory; POSTEMERGENCE, Rate 50 g/ha): 10
- Plant response rating, Morningglory (morningglory; PREEMERGENCE, Rate 50 g/ha): 2
- Plant response rating, Bedstraw (bedstraw; 62 g/ha, 0 to 100 scale): 80
- Plant response rating (0 to 100), Bedstraw (bedstraw; Rate 1 g/ha): 40
- Plant response rating (0 to 100), Bedstraw (bedstraw; Rate 4 g/ha): 70
- Plant response rating (0 to 100), Bedstraw (bedstraw; Rate 16 g/ha): 80
- Plant response rating, Crabgrass (crabgrass; 62 g/ha, 0 to 100 scale): 40
- Plant response rating (0 to 100), Crabgrass (crabgrass; Rate 1 g/ha): 10
- Plant response rating (0 to 100), Crabgrass (crabgrass; Rate 4 g/ha): 20
- Plant response rating (0 to 100), Crabgrass (crabgrass; Rate 16 g/ha): 30
- Plant response rating, Wheat (wheat [1]; POSTEMERGENCE, Rate 10 g/ha): 5
- Plant response rating, Wheat (wheat [1]; POSTEMERGENCE, Rate 50 g/ha): 6
- Plant response rating, Wheat (wheat [1]; PREEMERGENCE, Rate 50 g/ha): 0
- Plant response rating, Blackgrass (blackgrass; 62 g/ha, 0 to 100 scale): 60
- Plant response rating (0 to 100), Blackgrass (blackgrass; Rate 1 g/ha): 30
- Plant response rating (0 to 100), Blackgrass (blackgrass; Rate 4 g/ha): 40
- Plant response rating (0 to 100), Blackgrass (blackgrass; Rate 16 g/ha): 50
- Plant response rating, Barnyardgrass (barnyardgrass; POSTEMERGENCE, Rate 10 g/ha): 5
- Plant response rating, Barnyardgrass (barnyardgrass; POSTEMERGENCE, Rate 50 g/ha): 6
- Plant response rating, Barnyardgrass (barnyardgrass; PREEMERGENCE, Rate 10 g/ha): 2
- Plant response rating, Barnyardgrass (barnyardgrass; PREEMERGENCE, Rate 50 g/ha): 6
- Plant response rating, Wheat (wheat [2]; 62 g/ha, 0 to 100 scale): 60
- Plant response rating (0 to 100), Wheat (wheat [2]; Rate 1 g/ha): 10
- Plant response rating (0 to 100), Wheat (wheat [2]; Rate 4 g/ha): 30
- Plant response rating (0 to 100), Wheat (wheat [2]; Rate 16 g/ha): 50
- Plant response rating, Wild oat (wild oat; 62 g/ha, 0 to 100 scale): 60
- Plant response rating (0 to 100), Wild oat (wild oat; Rate 1 g/ha): 10
- Plant response rating (0 to 100), Wild oat (wild oat; Rate 4 g/ha): 30
- Plant response rating (0 to 100), Wild oat (wild oat; Rate 16 g/ha): 50
- Plant response rating, Cotton (cotton; POSTEMERGENCE, Rate 10 g/ha): 10
- Plant response rating, Cotton (cotton; POSTEMERGENCE, Rate 50 g/ha): 10
- Plant response rating, Cotton (cotton; PREEMERGENCE, Rate 10 g/ha): 0
- Plant response rating, Cotton (cotton; PREEMERGENCE, Rate 50 g/ha): 1
- Plant response rating, Velvetleaf (velvetleaf; POSTEMERGENCE, Rate 10 g/ha): 9
- Plant response rating, Velvetleaf (velvetleaf; POSTEMERGENCE, Rate 50 g/ha): 10
- Plant response rating, Velvetleaf (velvetleaf; PREEMERGENCE, Rate 50 g/ha): 1
- Plant response rating Speedwell (speedwell; 62 g/ha, 0 to 100 scale): 100
- Plant response rating (0 to 100), Speedwell (speedwell; Rate 1 g/ha): 90
- Plant response rating (0 to 100), Speedwell (speedwell; Rate 4 g/ha): 100
- Plant response rating (0 to 100), Speedwell (speedwell; Rate 16 g/ha): 100
- Plant response rating, Giant foxtail (giant foxtail; 62 g/ha, 0 to 100 scale): 40
- Plant response rating (0 to 100), Giant foxtail (giant foxtail; Rate 1 g/ha): 10
- Plant response rating (0 to 100), Giant foxtail (giant foxtail; Rate 4 g/ha): 20
- Plant response rating (0 to 100), Giant foxtail (giant foxtail; Rate 16 g/ha): 30
- Plant response rating, Rape (rape; 62 g/ha, 0 to 100 scale): 100
- Plant response rating (0 to 100), Rape (rape; Rate 1 g/ha): 70
- Plant response rating (0 to 100), Rape (rape; Rate 4 g/ha): 70
- Plant response rating (0 to 100), Rape (rape; Rate 16 g/ha): 90
